HELM strings list units from the 5' end as sugar, base in round brackets, then linkage (d deoxyribose, r ribose, m 2'-O-methyl, p phosphodiester). Strings are as the collection lists them; they lack the last nucleoside at the 3' end of the tested compound. [moe] = 2'-O-(2-methoxyethyl) (MOE); [sp] = phosphorothioate linkage; [m5C] = 5-methylcytosine
molecular target: UBE3A-ATS; assay: mouse, dose not given; details: ASO

Substance | 3 h FOB score [score 0-7]
RNA1{[moe]([m5C])[sp].[moe](T)p.[moe](G)p.[moe]([m5C])p.d(T)[sp].d([m5C])[sp].d(A)[sp].d(G)[sp].d(T)[sp].d(T)[sp].d(A)[sp].d(G)[sp].d(G)[sp].d(T)[sp].[moe](T)p.[moe](A)p.[moe](G)p.[moe](T)[sp].[moe](G)}$$$$ (last 3' nucleoside missing) | 4
RNA1{[moe]([m5C])[sp].[moe](T)p.[moe](T)p.[moe](A)p.[moe](A)p.d(A)[sp].d(T)[sp].d(A)[sp].d(G)[sp].d(T)[sp].d(A)[sp].d(G)[sp].d(G)[sp].d(A)[sp].d(A)[sp].[moe](A)p.[moe](G)p.[moe]([m5C])[sp].[moe]([m5C])}$$$$ (last 3' nucleoside missing) | 4.8
RNA1{[moe]([m5C])[sp].[moe](T)p.[moe](T)p.[moe](A)p.[moe](G)p.d(A)[sp].d(T)[sp].d(G)[sp].d(T)[sp].d(G)[sp].d(T)[sp].d(T)[sp].d(T)[sp].d(A)[sp].d(T)[sp].[moe]([m5C])p.[moe]([m5C])p.[moe](A)[sp].[moe](A)}$$$$ (last 3' nucleoside missing) | 1.2
RNA1{[moe]([m5C])[sp].[moe](T)p.[moe](T)p.[moe](A)p.[moe](G)p.d(G)[sp].d([m5C])[sp].d(A)[sp].d(A)[sp].d(T)[sp].d(G)[sp].d(G)[sp].d(A)[sp].d([m5C])[sp].d(T)[sp].[moe](T)p.[moe](A)p.[moe](G)[sp].[moe](T)}$$$$ (last 3' nucleoside missing) | 1
RNA1{[moe]([m5C])[sp].[moe](T)p.[moe](T)p.[moe](A)p.[moe](T)p.d(G)[sp].d(T)[sp].d(A)[sp].d(G)[sp].d([m5C])[sp].d(T)[sp].d([m5C])[sp].d(A)[sp].d(G)[sp].d([m5C])[sp].[moe](T)p.[moe]([m5C])p.[moe](A)[sp].[moe](A)}$$$$ (last 3' nucleoside missing) | 2
RNA1{[moe]([m5C])[sp].[moe](T)p.[moe](T)p.[moe](G)p.[moe](A)p.d(T)[sp].d(G)[sp].d(G)[sp].d([m5C])[sp].d(T)[sp].d(G)[sp].d(T)[sp].d(A)[sp].d(G)[sp].d([m5C])[sp].[moe](T)p.[moe](T)p.[moe](G)[sp].[moe](G)}$$$$ (last 3' nucleoside missing) | 5
RNA1{[moe]([m5C])[sp].[moe](T)p.[moe](T)p.[moe](T)p.[moe](A)p.d(G)[sp].d(T)[sp].d(A)[sp].d(T)[sp].d(G)[sp].d(T)[sp].d([m5C])[sp].d(G)[sp].d(A)[sp].d(G)[sp].[moe](A)p.[moe](A)p.[moe]([m5C])[sp].[moe](T)}$$$$ (last 3' nucleoside missing) | 5
RNA1{[moe]([m5C])[sp].[moe](T)p.[moe](T)p.[moe](T)p.[moe](A)p.d(T)[sp].d(A)[sp].d([m5C])[sp].d(T)[sp].d(T)[sp].d(T)[sp].d(A)[sp].d([m5C])[sp].d([m5C])[sp].d([m5C])[sp].[moe](A)p.[moe](A)p.[moe]([m5C])[sp].[moe](T)}$$$$ (last 3' nucleoside missing) | 0
RNA1{[moe]([m5C])[sp].[moe](T)p.[moe](T)p.[moe](T)p.[moe]([m5C])p.d(A)[sp].d(T)[sp].d([m5C])[sp].d(A)[sp].d(G)[sp].d(T)[sp].d(T)[sp].d(A)[sp].d(G)[sp].d(T)[sp].[moe]([m5C])p.[moe](A)p.[moe](G)[sp].[moe](G)}$$$$ (last 3' nucleoside missing) | 3.5
RNA1{[moe]([m5C])[sp].[moe](T)p.[moe](T)p.[moe]([m5C])[sp].d(A)[sp].d([m5C])[sp].d([m5C])[sp].d(A)[sp].d(T)[sp].d(T)[sp].d(T)[sp].d(T)[sp].[moe](G)p.[moe](A)p.[moe]([m5C])p.[moe]([m5C])[sp].[moe](T)}$$$$ (last 3' nucleoside missing) | 0
RNA1{[moe]([m5C])[sp].[moe](T)p.[moe](T)p.[moe]([m5C])p.[moe](A)p.[moe]([m5C])p.d([m5C])[sp].d(A)[sp].d(T)[sp].d(T)[sp].d(T)[sp].d(T)[sp].d(G)[sp].d(A)[sp].d([m5C])[sp].d([m5C])[sp].[moe](T)p.[moe](T)[sp].[moe]([m5C])}$$$$ (last 3' nucleoside missing) | 1
RNA1{[moe]([m5C])[sp].[moe](T)p.[moe](T)p.[moe]([m5C])p.[moe](A)p.d(A)[sp].d([m5C])[sp].d(T)[sp].d(A)[sp].d(A)[sp].d([m5C])[sp].d(A)[sp].d(G)[sp].d(T)[sp].d(A)[sp].[moe](T)p.[moe]([m5C])p.[moe](T)[sp].[moe](T)}$$$$ (last 3' nucleoside missing) | 0
RNA1{[moe]([m5C])[sp].[moe](T)p.[moe](T)p.[moe]([m5C])p.[moe](A)p.d(T)[sp].d(T)[sp].d(A)[sp].d(T)[sp].d(T)[sp].d([m5C])[sp].d(T)[sp].d([m5C])[sp].d(T)[sp].d(A)[sp].[moe](G)p.[moe](T)p.[moe](G)[sp].[moe]([m5C])}$$$$ (last 3' nucleoside missing) | 0
RNA1{[moe]([m5C])[sp].[moe](T)p.[moe](T)p.[moe]([m5C])p.[moe](A)p.d([m5C])[sp].d([m5C])[sp].d(A)[sp].d(T)[sp].d(T)[sp].d(T)[sp].d(T)[sp].d(G)[sp].d(A)[sp].d([m5C])[sp].[moe]([m5C])p.[moe](T)p.[moe](T)[sp].[moe]([m5C])}$$$$ (last 3' nucleoside missing) | 1
RNA1{[moe]([m5C])[sp].[moe](T)p.[moe](T)p.[moe]([m5C])p.d(A)[sp].d([m5C])[sp].d([m5C])[sp].d(A)[sp].d(T)[sp].d(T)[sp].d(T)[sp].d(T)[sp].d(G)[sp].d(A)[sp].[moe]([m5C])p.[moe]([m5C])p.[moe](T)p.[moe](T)[sp].[moe]([m5C])}$$$$ (last 3' nucleoside missing) | 1
RNA1{[moe]([m5C])[sp].[moe](T)p.[moe]([m5C])p.[moe](A)[sp].d(G)[sp].d(T)[sp].d(T)[sp].d(A)[sp].d(G)[sp].d(G)[sp].d(T)[sp].d(T)[sp].[moe](A)p.[moe](G)p.[moe](T)p.[moe](G)[sp].[moe]([m5C])}$$$$ (last 3' nucleoside missing) | 5.3
RNA1{[moe]([m5C])[sp].[moe](T)p.[moe]([m5C])p.[moe](A)p.[moe](G)[sp].d(T)[sp].d(T)[sp].d(A)[sp].d(G)[sp].d(G)[sp].d(T)[sp].d(T)[sp].d(A)[sp].[moe](G)p.[moe](T)p.[moe](G)[sp].[moe]([m5C])}$$$$ (last 3' nucleoside missing) | 1.3
RNA1{[moe]([m5C])[sp].[moe](T)p.[moe]([m5C])p.[moe](A)p.[moe](G)p.[moe](T)[sp].d(T)[sp].d(A)[sp].d(G)[sp].d(G)[sp].d(T)[sp].d(T)[sp].d(A)[sp].d(G)[sp].[moe](T)p.[moe](G)[sp].[moe]([m5C])}$$$$ (last 3' nucleoside missing) | 6.3
RNA1{[moe]([m5C])[sp].[moe](T)p.[moe]([m5C])p.[moe](A)p.[moe](G)p.[moe](T)p.d(T)[sp].d(A)[sp].d(G)[sp].d(G)[sp].d(T)[sp].d(T)[sp].d(A)[sp].d(G)[sp].d(T)[sp].d(G)[sp].[moe]([m5C])p.[moe](A)[sp].[moe]([m5C])}$$$$ (last 3' nucleoside missing) | 4

— the OligoGym collection
